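Grown in 96-well plates, cells were treated for 48 hours with each compound at five concentrations. Insufficient inhibition: endpoint recorded as highest concentration tested. GI50: concentration for 50% inhibition of growth. The concentration for full growth arrest is given as TGI.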
Experiments:
Experiment in all cases: growth of human tumour cells (NCI), 48 h
786-0 renal = system: 786-0 renal
A498 renal = system: A498 renal
A549 NSCLC = system: A549 NSCLC
ACHN renal = system: ACHN renal
BT-549 breast = system: BT-549 breast
CAKI-1 renal = system: CAKI-1 renal
CCRF-CEM leukemia = system: CCRF-CEM leukemia
COLO 205 colon = system: COLO 205 colon
DU-145 prostate = system: DU-145 prostate
HCC-2998 colon = system: HCC-2998 colon
HCT-116 colon = system: HCT-116 colon
HCT-15 colon = system: HCT-15 colon
HL-60(TB) leukemia = system: HL-60(TB) leukemia
HOP-62 NSCLC = system: HOP-62 NSCLC
HOP-92 NSCLC = system: HOP-92 NSCLC
HS 578T breast = system: HS 578T breast
HT29 colon = system: HT29 colon
IGROV1 ovarian = system: IGROV1 ovarian
K-562 leukemia = system: K-562 leukemia
KM12 colon = system: KM12 colon
LOX IMVI melanoma = system: LOX IMVI melanoma
M14 melanoma = system: M14 melanoma
MALME-3M melanoma = system: MALME-3M melanoma
MCF7 breast = system: MCF7 breast
MDA-MB-231 breast = system: MDA-MB-231 breast
MDA-MB-435 = system: MDA-MB-435
MOLT-4 leukemia = system: MOLT-4 leukemia
NCI-H226 lung = system: NCI-H226 lung

**Q.** For `O=C(Nc1cccc(-n2cc(-c3ccncc3)c(-c3ccc(O)c(Cl)c3)n2)c1)Nc1ccc(Cl)c(C(F)(F)F)c1`, which GI50 (786-0 renal) is on record?
**A.** 2.08 µM

**Q.** And the TGI (786-0 renal)?
**A.** 8.18 µM

**Q.** And the GI50 (A498 renal)?
**A.** 2.47 µM

**Q.** And the TGI (A498 renal)?
**A.** 7.75 µM

**Q.** And the GI50 (A549 NSCLC)?
**A.** 1.83 µM

**Q.** And the TGI (A549 NSCLC)?
**A.** 5.86 µM

**Q.** And the GI50 (ACHN renal)?
**A.** 2.64 µM

**Q.** And the TGI (ACHN renal)?
**A.** 10.9 µM

**Q.** What about the GI50 (BT-549 breast) of the same compound?
**A.** 1.82 µM

**Q.** What about the TGI (BT-549 breast) of the same compound?
**A.** 4.28 µM

**Q.** What about the GI50 (CAKI-1 renal) of the same compound?
**A.** 2.02 µM

**Q.** And the TGI (CAKI-1 renal)?
**A.** 7.33 µM

**Q.** And the GI50 (CCRF-CEM leukemia)?
**A.** 1.77 µM

**Q.** And the TGI (CCRF-CEM leukemia)?
**A.** 6.31 µM

**Q.** What about the GI50 (COLO 205 colon) of the same compound?
**A.** 1.77 µM

**Q.** What about the TGI (COLO 205 colon) of the same compound?
**A.** 3.32 µM

**Q.** What about the GI50 (DU-145 prostate) of the same compound?
**A.** 2.54 µM

**Q.** And the TGI (DU-145 prostate)?
**A.** 7.76 µM

**Q.** What about the GI50 (HCC-2998 colon) of the same compound?
**A.** 2.81 µM

**Q.** What about the TGI (HCC-2998 colon) of the same compound?
**A.** 6.98 µM

**Q.** What about the GI50 (HCT-116 colon) of the same compound?
**A.** 2.4 µM

**Q.** And the TGI (HCT-116 colon)?
**A.** 8.21 µM

**Q.** And the GI50 (HCT-15 colon)?
**A.** 2.58 µM

**Q.** And the TGI (HCT-15 colon)?
**A.** 10.9 µM

**Q.** What about the GI50 (HL-60(TB) leukemia) of the same compound?
**A.** 2.55 µM

**Q.** What about the TGI (HL-60(TB) leukemia) of the same compound?
**A.** 6.38 µM

**Q.** What about the GI50 (HOP-62 NSCLC) of the same compound?
**A.** 3.15 µM

**Q.** What about the TGI (HOP-62 NSCLC) of the same compound?
**A.** 9.77 µM

**Q.** And the GI50 (HOP-92 NSCLC)?
**A.** 0.455 µM

**Q.** What about the TGI (HOP-92 NSCLC) of the same compound?
**A.** 2.93 µM

**Q.** And the GI50 (HS 578T breast)?
**A.** 1.3 µM

**Q.** What about the TGI (HS 578T breast) of the same compound?
**A.** 6.24 µM

**Q.** What about the GI50 (HT29 colon) of the same compound?
**A.** 3.39 µM

**Q.** And the TGI (HT29 colon)?
**A.** 11.3 µM

**Q.** What about the GI50 (IGROV1 ovarian) of the same compound?
**A.** 2.82 µM

**Q.** And the TGI (IGROV1 ovarian)?
**A.** 8.12 µM

**Q.** What about the GI50 (K-562 leukemia) of the same compound?
**A.** 2.44 µM

**Q.** And the TGI (K-562 leukemia)?
**A.** 9.79 µM

**Q.** What about the GI50 (KM12 colon) of the same compound?
**A.** 1.61 µM

**Q.** And the TGI (KM12 colon)?
**A.** 3.26 µM

**Q.** What about the GI50 (LOX IMVI melanoma) of the same compound?
**A.** 1.61 µM

**Q.** And the TGI (LOX IMVI melanoma)?
**A.** 3.21 µM

**Q.** And the GI50 (M14 melanoma)?
**A.** 1.79 µM

**Q.** What about the TGI (M14 melanoma) of the same compound?
**A.** 3.77 µM

**Q.** What about the GI50 (MALME-3M melanoma) of the same compound?
**A.** 2.43 µM

**Q.** What about the TGI (MALME-3M melanoma) of the same compound?
**A.** 7.59 µM

**Q.** And the GI50 (MCF7 breast)?
**A.** 1.8 µM

**Q.** And the TGI (MCF7 breast)?
**A.** 4.34 µM

**Q.** And the GI50 (MDA-MB-231 breast)?
**A.** 1.84 µM

**Q.** What about the TGI (MDA-MB-231 breast) of the same compound?
**A.** 7.63 µM

**Q.** What about the GI50 (MDA-MB-435) of the same compound?
**A.** 1.98 µM

**Q.** And the TGI (MDA-MB-435)?
**A.** 4.88 µM

**Q.** What about the GI50 (MOLT-4 leukemia) of the same compound?
**A.** 1.64 µM

**Q.** And the TGI (MOLT-4 leukemia)?
**A.** 4.65 µM

**Q.** And the GI50 (NCI-H226 lung)?
**A.** 2.02 µM
